# Test results taken from publication PMC10223284, “Category-Based Toxicokinetic Evaluations of Data-Poor Per- and Polyfluoroalkyl Substances (PFAS) using Gas Chromatography Coupled with Mass Spectrometry” (Toxics, 2023).
# Several values for one entry are separate records, joined by “and”; a condition that tells them apart may be missing. Identical values can stand only once. Like-named read-outs stand apart in the source and are kept apart here.
# Assays:
# [1] = Hepatic metabolic stability (hepatocyte clearance) assay, substrate depletion; type: in vitro ADME, human; conditions: both sexes, human; for half-life at 1 μM: read-out: Linear Regression Results, Best-Fit Values, Half Life
# Description: (§1) William’s Medium E (Gibco A1217601), dexamethasone, and cell maintenance cocktail B (Gibco CM4000) were obtained from Thermo Fisher Scientific (Waltham, MA, USA). Hepatosure OptiThaw media (P/N K8000; Lot No. 18–1–0322) was obtained from Sekisui Xenotech (Kansas City, KS, USA). Trypan blue solution (P/N 1450021) was obtained from Bio-Rad (Hercules, CA, USA). Pooled human cryopreserved primary hepatocyte suspensions were obtained from BioIVT (Westbury, NY, USA) and produced using nontransplantable tissue. The human 50-donor pool (mixed gender; Cat X0080005; Lot MYC), selected from BioIVT’s commercially available, prepooled lots, was selected following review of vendor-generated metabolic characterization information. Pooled, mixed-sex human plasma from de-identified donors was obtained from a commercial vendor that operates a U.S. Food and Drug Administration-licensed and inspected donor center (BioIVT bioivt.com (accessed 12 May 2023). Donors comprised five males and five females and ranged from 20 to 50 years of age. Plasma collected using anticoagulant K2EDTA was sterile-filtered ([…]) and stored at <−70 °C until use.
# (§2) The hepatic metabolic stability assay measures the loss of a parent compound over time in a substrate-depletion approach. Briefly, hepatocyte suspensions, after a viability assessment, were diluted in complete William’s medium E (containing dexamethasone and cell maintenance cocktail B) prior to addition to 96-well polypropylene plates containing an equal volume of media spiked with the test compound (1 μM assay concentration; assay cell density = 50,000 cells/100 μL) and maintained at 37 °C with shaking. At each time point, relevant plates were crashed with an equal volume of ice-cold acetonitrile, centrifuged, and supernatant transferred to a new plate prior to storage at <−70 °C until quantitative analysis. Controls, run in parallel, included cell-free (i.e., media only) and metabolically inactivated hepatocytes to evaluate abiotic chemical stability in the aqueous media matrix with and without cellular protein. In preliminary runs, these controls were run at T0 and T240 only. If significant instability was noted, the hepatocyte clearance assay was rerun, including cell-free samples at each time point and metabolically inactivated hepatocytes at selected time points.
# (§3) To process samples for quantitative analysis, samples were thawed and mixed. An aliquot of sample was removed and diluted in acetonitrile (1 part sample plus 9 parts acetonitrile) containing the relevant ISs selected for the PFAS being analyzed (See Table S2). The target at instrument concentration of each IS was 10 pg/μL.
# (§4) The curves were generated using concentration/response ratios from the target analyte and IS, with either linear or quadratic regression models. The model and weighting, if necessary, were chosen to most accurately reflect the response of each compound and was evaluated by recalculating the individual calibration points using the curve. An acceptable model reflected an accuracy of ±30% of the theoretical value.
# (§5) Hepatic metabolic clearance data were plotted in semi-log format (ln concentration vs. time) with three replicates at each time point, as previously described. […] The equations described below are used to calculate the chemical half-life (T½) and intrinsic in vitro clearance (Clin vitro) with units of μL/(min × million hepatocytes). In Equation (3), 2000 is a scalar used to adjust the assay cell number up to be consistent with units of 1 million cells in the Clint equation.
# (§6) Negative controls, including media only and metabolically inactivated hepatocyte controls, were included to monitor abiotic loss (i.e., background clearance) during the assay. Where significant compound loss occurred using the analysis described above, background clearance rates were calculated and used to background-adjust hepatic metabolic clearance rates. […]
# [2] = test system: pooled human cryopreserved primary hepatocyte suspensions; test: as above; type: in vitro ADME; conditions: for Linear Regression Results, Best-Fit Values, Slope: hepatocyte time course
# Description: as §1, §2, §3, §4, §5, §6
# [3] = Abiotic loss in negative controls of the hepatocyte clearance assay (cell-free media, metabolically inactivated hepatocytes); type: in vitro ADME; conditions: for half-life at 1 μM / HT BkgdCl, Slope / No Cells BkgdCl, Slope: 0 vs 240 min; for Hep_Stab_Fail: flag for stability failure in hepatocyte clearance assay controls (1 or Fst = fail, 0 = pass); for Negative Controls, Heat Treated (HT), concentration at 0 min / Negative Controls, Heat Treated (HT), concentration at 240 min: heat treated hepatocytes; for Negative Controls, Heat Treated (HT), concentration at 0 min / Negative Controls, Heat Treated (HT), concentration at 240 min / Negative Controls, No cells (NC), concentration at 0 min / Negative Controls, No cells (NC), concentration at 240 min: Rep 1-3
# Method in brief: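 Test compound at 1 μM incubated at 37 °C with shaking in complete William's medium E, either cell-free or with metabolically inactivated hepatocytes, then quenched with ice-cold acetonitrile for quantitative analysis.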
# [4] = In vitro-in vivo extrapolation (IVIVE) to Css and administered equivalent dose (AED); design: species or system human; conditions: for Clhep: IVIVE, hepatocyte Clint scaled to whole-liver clearance; for AED: administered equivalent dose from LOEC and Css; for Fub: fub=fup/(B:P), Fub set to 1 if needed; for CLint: scaled with HPGL 110 mill cells/g, Vl 1596 g
# Protocol: Using the experimentally generated PPB (fraction unbound in plasma, fup) and hepatic Clint data, IVIVE was performed as previously described to calculate human steady-state plasma concentrations (Css). Briefly, experimental measures of fup are adjusted using blood:plasma partitioning information to estimate the fraction unbound in blood (fub). Experimental hepatocyte Clint data are scaled up to represent whole-liver clearance (L/h). […] Once estimated, these Css values are considered in conjunction with published in vitro bioactivity concentrations (i.e., lowest-observed effective concentrations, or LOECs) to calculate AEDs (Table 2). See Table S10 for all relevant IVIVE inputs, scalars, calculations, and outputs.
# human primary cells = conditions: cited from earlier work
# in vitro = conditions: both, human, plasma
# human plasma [5] = test: Chemical stability in plasma over the UC assay time course (T5hr/T1hr); conditions: for Stability (T5hr/ T1hr), Run-specific Avg: average of one UC run (run date in line above); for PPB_Stab_Fail: flag for stability failure in the plasma protein binding assay (1 = fail, 0 = pass); for Mean Stability: mean T5hr/T1hr ratio over all replicates and runs, plasma; for Fstable.Med: median fraction stable in plasma, UC assay Level4
# Protocol: Three replicates were run per experiment, with 4NT included as a reference compound in each to evaluate assay performance. All PFAS and 4NT, prepared at a 3 mM working stock, were added to human plasma to achieve a final, thoroughly mixed assay concentration of 10 μM, incubated at 37 °C for 1 h with shaking. […] After UC, the aqueous fraction (AF; i.e., supernatant devoid of plasma proteins/lipoproteins/fatty acids) was collected and transferred to a new tube. The second aliquot maintained at 37 °C was collected (T5hr). At the relevant time points, each volume of sample was combined with 3 volumes of vigorously mixed ice-cold acetonitrile with the labeled IS and stored for 10 min at −20 °C prior to centrifugation at 12,000× g for 10 min at 4 °C. The supernatant was collected and stored at <−70 °C until quantitative analysis. […] Furthermore, chemical stability in plasma over the assay time course was assessed using the T1hr and T5hr samples.
# Percent chemical remaining at the end of the UC assay (T5hr/T1hr) was used to remove unstable chemicals from further evaluation.
# human plasma [6] = test: Ultracentrifugation (UC) plasma protein binding assay, fraction unbound in plasma (fup); conditions: for fup: human plasma, 10 μM, ultracentrifugation, 37 °C; for Fup.Med: median fraction unbound in plasma; for Fup.Med / Fup.point: UC assay Level4; for Fup.point: point estimate of fraction unbound in plasma
# [7] = hepatocytes, background-subtracted, read-out: Bkgd-Sub Clearance (µL/min/106 hepatocytes)
# [8] = hepatocytes, hepatocyte clearance, Conc 1000 nM, not background adjusted, read-out: Unadj Clint
# [9] = hepatocytes, pooled human hepatocyte suspensions, 1 μM, read-out: In Vitro Clint
# [10] = hepatocytes, unadjusted hepatocyte intrinsic clearance, read-out: Unadj in vitro Clint
# [11] = hepatocytes, hepatocyte time course, NS = slope not significant, read-out: Linear Regression Results, Best-Fit Values, Clearance
# [12] = hepatocytes, hepatocyte time course, NS = slope not significant
# [13] = hepatocyte incubation, Rep 1-3, start conc 1000 nM
# [14] = buffer, no cells control, read-out: No Cells BkgdCl, Half Life
# [15] = heat treated hepatocytes control
# [16] = Assuming 1 mg/kg/day dose rate, BW 70 kg
# [17] = human steady-state plasma concentration, assuming 1 mg/kg/day dosage
# [18] = BioSeek lowest-observed effect concentration used for AED
# [19] = minimum lowest-observed effect concentration, BioSeek platform
# [20] = Fraction Unbound (fu), Run-specific Avg, average of one UC run (run date in line above)
# [21] = Mean fu, fraction unbound in human plasma, ultracentrifugation, some values based on eLOQ
smiles,measurement,setting,value
"OCC(F)(F)C(F)(F)C(F)(F)C(F)(F)C(F)(F)C(F)(F)CO [1H,1H,8H,8H-Perfluorooctane-1,8-diol]",hepatocyte CLint at 1 μM,[1]; [7],20 µL/min/1e6 cells
same,hepatocyte CLint at 1 μM,[1]; [8],22.8 µL/min/1e6 cells
same,hepatocyte CLint at 1 μM,[1]; [9],20 µL/min/1e6 cells
same,hepatocyte CLint at 1 μM,[1]; [10],22.8 µL/min/1e6 cells
same,hepatocyte CLint at 1 μM,[1]; [11],22.8 µL/min/1e6 cells
same,half-life at 1 μM,[1]; [12],1.01 h
same,hepatocyte CLint at 1 μM,"[1]; s9, Bayesian analysis median, 1 μM assay concentration (Table S9), read-out: Clint.1.Med",5.03 µL/min/1e6 cells
same,"Concentration (nM), Time 0 min",[2]; [13],833.88 nM and 886.538 nM and 918.72 nM
same,"Concentration (nM), Time 15 min",[2]; [13],552.068 nM and 564.688 nM and 626.636 nM
same,"Concentration (nM), Time 30 min",[2]; [13],572.698 nM and 772.55 nM and 675.577 nM
same,"Concentration (nM), Time 60 min",[2]; [13],915.509 nM and 882.56 nM and 951.955 nM
same,"Concentration (nM), Time 120 min",[2]; [13],252.926 nM and 197.823 nM and 212.459 nM
same,"Linear Regression Results, Best-Fit Values, Slope",[2],-0.01141
same,half-life at 1 μM,[3]; [14],8.21 h
same,Hep_Stab_Fail,[3],0
same,"HT BkgdCl, Slope",[3]; [15],-0.00103
same,"Negative Controls, Heat Treated (HT), concentration at 0 min",[3],1090.28 nM and 973.38 nM and 645.077 nM
same,"Negative Controls, Heat Treated (HT), concentration at 240 min",[3],595.287 nM and 737.448 nM and 742.842 nM
same,"No Cells BkgdCl, Slope",[3]; no cells control,-0.001407
same,"Negative Controls, No cells (NC), concentration at 0 min",[3],937.465 nM and 878.747 nM and 1163.86 nM
same,"Negative Controls, No cells (NC), concentration at 240 min",[3],676.807 nM and 658.518 nM and 781.013 nM
same,Css,[4]; [16],0.16 mg/L and 0.45 uM
same,Clhep,[4],17.326 L/h
same,AED,[4],15.5263 mg/kg/day
same,Fub,[4],0.1018
same,Css,[4]; [17],0.45 µM
same,CLint,[4],3512253 µL/min
same,LOEC,human primary cells; [18],7.00 µM
same,LOEC,human primary cells; [19],7 µM
same,fraction unbound,in vitro; [20],0.0529
same,fraction unbound,"in vitro; Fraction Unbound (fu), individual replicates A, B, C of the UC run named in c8",0.0626
same,fraction unbound,in vitro; [21],0.056
same,Time 1 hr,"human plasma [5]; amount measured in plasma sample at 1 hr, replicates A, B, C, unit not given",8242.79 and 6998.48 and 7495.85 and 8652.78 and 7694.03 and 8210.48
same,Time 5 hr,"human plasma [5]; amount measured in plasma sample at 5 hr, replicates A, B, C, unit not given",7470.56 and 8168.83 and 8821.07 and 7477.64 (2×) and 9359.65
same,"Stability (T5hr/ T1hr), Run-specific Avg",human plasma [5],0.913
same,PPB_Stab_Fail,human plasma [5],0
same,Mean Stability,human plasma [5],0.997
same,Fstable.Med,human plasma [5],0.989
same,Aqueous Fraction,"human plasma [6]; amount measured in aqueous fraction after ultracentrifugation, replicates A, B, C, unit not given",467.47 and 486.886 and 467.528 and 459.225 and 404.056 and 403.816
same,fup,human plasma [6],0.0560
same,Fup.Med,human plasma [6],0.0465
same,Fup.point,human plasma [6],0.0506
"Cc1ccc(S(=O)(=O)OCC(F)(F)C(F)(F)C(F)(F)C(F)(F)C(F)(F)C(F)F)cc1 [1H,1H,7H-Perfluoroheptyl 4-methylbenzenesulfonate]",hepatocyte CLint at 1 μM,[1]; [7],23.9 µL/min/1e6 cells
same,hepatocyte CLint at 1 μM,[1]; [8],31 µL/min/1e6 cells
same,hepatocyte CLint at 1 μM,[1]; [9],23.9 µL/min/1e6 cells
same,hepatocyte CLint at 1 μM,[1]; [10],31 µL/min/1e6 cells
same,hepatocyte CLint at 1 μM,[1]; [11],31 µL/min/1e6 cells
same,half-life at 1 μM,[1]; [12],0.746 h
same,"Concentration (nM), Time 15 min",[2]; [13],1073.03 nM and 1187.92 nM and 943.206 nM
same,"Concentration (nM), Time 30 min",[2]; [13],985.478 nM and 1012.58 nM and 870.92 nM
same,"Concentration (nM), Time 60 min",[2]; [13],899.811 nM and 874.355 nM and 982.505 nM
same,"Linear Regression Results, Best-Fit Values, Slope",[2],-0.01549
same,half-life at 1 μM,"[3]; both sexes, human, heat treated hepatocytes control, read-out: HT BkgdCl, Half Life",2.62 h
same,half-life at 1 μM,[3]; [14],3.24 h
same,Hep_Stab_Fail,[3],0
same,"HT BkgdCl, Slope",[3]; [15],-0.004413
same,"Negative Controls, Heat Treated (HT), concentration at 0 min",[3],1655.88 nM and 1540.88 nM and 2130.45 nM
same,"Negative Controls, Heat Treated (HT), concentration at 240 min",[3],752.335 nM and 712.914 nM and 422.601 nM
same,"No Cells BkgdCl, Slope",[3]; no cells control,-0.003563
same,"Negative Controls, No cells (NC), concentration at 0 min",[3],1381.59 nM and 1965.43 nM and 2200.38 nM
same,"Negative Controls, No cells (NC), concentration at 240 min",[3],723.371 nM and 790.633 nM and 803.182 nM
same,Css,[4]; [16],4.87 mg/L and 10.01 uM
same,Clhep,[4],0.588 L/h
same,AED,[4],0.6995 mg/kg/day
same,Fub,[4],0.002357
same,Css,[4]; [17],10.01 µM
same,CLint,[4],4187106 µL/min
same,LOEC,human primary cells; [18],7.00 µM
same,LOEC,human primary cells; [19],7 µM
same,fraction unbound,in vitro; [20],0.03
same,fraction unbound,in vitro; [21],0.029
same,"Stability (T5hr/ T1hr), Run-specific Avg",human plasma [5],0.983
same,PPB_Stab_Fail,human plasma [5],0
same,Mean Stability,human plasma [5],1.006
same,Fstable.Med,human plasma [5],1
same,"Stability (T5hr/ T1hr), replicates A, B, C",human plasma [5]; single replicate of one UC run,0.9436 and 0.9774 and 1.0981
same,fup,human plasma [6],0.0290
same,Fup.Med,human plasma [6],0.116
same,Fup.point,human plasma [6],0.0275
same,"Fraction Unbound (fu), replicates A, B, C",human plasma [6]; single replicate of one UC run (aqueous fraction / Time 5 hr),0.01902 and 0.02822 and 0.04008
